The results in this text go back to patent publication US12139499B2, “Heteroaryl compounds for treating Huntington's disease” (PTC THERAPEUTICS, INC., priority 2018, dated 2024).

A word on the IC50: it is the concentration at which inhibition is half-maximal. Read a low IC50 as greater potency.

Each structure is given as a SMILES string.

The subject of the test is Endogenous Huntingtin Protein. Kind of test: Endogenous Huntingtin Protein Assay (ELISA-based MSD electrochemiluminescence). The following applies: Table 1. In kind it is cell-based. The method, boiled down: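 Huntingtin was captured overnight at 4 °C on plates coated with 1 μg/mL MW1 (polyQ-expanded) or MAB2166 antibody and BSA-blocked. Detection used a rabbit monoclonal and then a SULFO-TAG goat anti-rabbit antibody (0.25 μg/mL, 1 h each, room temperature). Signal was read by electrochemiluminescence.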
In turn, `Cc1cn2cc(-c3ccc4nc(C5CCNCC5)sc4c3)ncc2n1` [Compound 169, 2-methyl-6-[2-(piperidin-4-yl)-1,3-benzothiazol-6-yl]imidazo[1,2-a]pyrazine] had an IC50 of 100 to 500 nM.

`Cn1cc2cc(-c3nc4ccc(C5CCNCC5)cc4s3)ccc2n1` [Compound 5, 2-(2-methyl-2H-indazol-5-yl)-6-(piperidin-4-yl)-1,3-benzothiazole] registered an IC50 of 500 to 1000 nM.

`Cc1cc(-c2cc3sc(N(C)C4CCNCC4)nc3cn2)cc2cn(C)nc12` [Compound 30, 6-(2,7-dimethyl-2H-indazol-5-yl)-N-methyl-N-(piperidin-4-yl)[1,3]thiazolo[4,5-c]pyridin-2-amine] had an IC50 of 100 to 500 nM.

In the case of `CNC1CC(N(C)c2nc3nnc(-c4ccc(-c5cn[nH]c5)cc4O)cc3s2)C1` (centres unmarked) [Compound 350, 2-(6-{methyl[3-(methylamino)cyclobutyl]amino}[1,3]thiazolo[4,5-c]pyridazin-3-yl)-5-(1H-pyrazol-4-yl)phenol], the IC50 was in the range of 100 to 500 nM.

`Cc1cn2cc(-c3cc4sc(OC5CC(C)(C)NC(C)(C)C5)nc4cn3)cc(C#N)c2n1` [Compound 309, 2-methyl-6-{2-[(2,2,6,6-tetramethylpiperidin-4-yl)oxy][1,3]thiazolo[4,5-c]pyridin-6-yl}imidazo[1,2-a]pyridine-8-carbonitrile] yielded an IC50 of at most 100 nM.

The compound `Cc1cn2cc(-c3cc4sc(N(C)C5CC(C)(C)NC(C)(C)C5)nc4cn3)cc(C#N)c2n1` [Compound 179, 2-methyl-6-{2-[methyl(2,2,6,6-tetramethylpiperidin-4-yl)amino][1,3]thiazolo[4,5-c]pyridin-6-yl}imidazo[1,2-a]pyridine-8-carbonitrile] gave a half-maximal inhibitory concentration (IC50) of at most 100 nM.

Regarding `Oc1cc(-c2cn[nH]c2)ccc1-c1cc2sc(N3CCC34CCCNC4)nc2nn1` (centres unmarked) [Compound 363, 2-[6-(1,6-diazaspiro[3.5]nonan-1-yl)[1,3]thiazolo[4,5-c]pyridazin-3-yl]-5-(1H-pyrazol-4-yl)phenol], the IC50 was at most 100 nM.

Compound `Cc1cn2cc(-c3cc4sc(OC5CCNCC5)nc4cn3)cc(F)c2n1` [Compound 314, 6-(8-fluoro-2-methylimidazo[1,2-a]pyridin-6-yl)-2-[(piperidin-4-yl)oxy][1,3]thiazolo[4,5-c]pyridine] came in with an IC50 of 100 to 500 nM.
